Assay results as given in patent US11116726B2, “Echinomycin formulation, method of making and method of use thereof” (CHILDREN'S RESEARCH INSTITUTE, CHILDREN'S NATIONAL MEDICAL …, priority 2015, dated 2021).

Experiments:
[1] = Liposomal echinomycin toxicity in mice (body weight, survival); format: in vivo, NSG mice; conditions: 1 mg/kg single i.v.
Method: FIG. 4. Comparison of toxicity and efficacy for liposomal vs. free echinomycin. (Panel A) Body weight change in female NSG mice receiving a therapeutic cycle of liposomal echinomycin, PBS echinomycin (20% DMSO in PBS), or equivalent dosage of empty liposomal vehicle. Mice were treated with 250 μg/kg of liposomal (n=7) or free (n=7) echinomycin, or vehicle equivalent (n=4), by i.v. once every other day for a total of 3 doses). (Panel B) Survival of NSG mice administered single i.v. injection of 1 mg/kg liposomal or free echinomycin, or equivalent dosage of empty liposomal vehicle.
To test the toxicity of liposomal echinomycin in mice, a therapeutic cycle of echinomycin was administered at a dose of 250 μg/kg, (liposomal-formulated, non-liposomal-formulated, or equivalent dosage of empty liposomal vehicle) by i.v. injection, every other day for a total of 3 doses. Body weights of the mice were monitored throughout this period.

[2] = Intravenous tolerability / LD50 in mice; conditions: mouse, in vivo
[3] = Plasma pharmacokinetics by mass spectrometry after single i.v. injection; format: in vivo, mice; conditions: 0.1 mg/kg single i.v.
Method: FIG. 5. Comparison of pharmacokinetics for liposomal vs. free echinomycin. Serum plasma levels of echinomycin detected by MS following single dose i.v. administration of 0.1 mg/kg liposomal echinomycin or free echinomycin
PEG shields liposomes from rapid uptake by the RES and provides steric stabilization to the liposome particles. To measure the prolonged circulation of liposomal echinomycin in the bloodstream compared to free echinomycin, the pharmacokinetics of both formulations were evaluated by detecting echinomycin levels in the plasma by mass spectrometry following single i.v. injections of 0.1 mg/kg of liposomal echinomycin or free echinomycin in mice (FIG. 5).

[4] = Echinomycin concentration in SUM 159 breast tumor tissue after single i.v. injection; format: in vivo, NSG mice; conditions: 0.1 mg/kg single i.v., SUM 159 tumor
Method: FIG. 6. Accumulation of Echinomycin in tumor. Concentration of echinomycin in breast tumor SUM 159 following single dose i.v. injection (0.1 mg/kg) of liposomal and conventionally formulated echinomycin. n=3/time-point.
In contrast, administration of liposomal echinomycin (Lipo-EM) at the same dose of 0.1 mg/kg achieved a tissue concentration >5 ng/g, which was prolonged for more than 10 hrs following administration (FIG. 6). More importantly, peak drug levels in the liposomal echinomycin-treated group were approximately 6-fold higher than those treated with free echinomycin.

human ETP-ALL-1 cells = test: ETP-ALL xenograft model, human CD45+ cells in blood by FACS; format: in vivo, NSG mice; conditions: echinomycin in PBS 0.1 mg/kg x15 doses; Lipo-EM 0.35 mg/kg x10 doses; blood days 34, 50, 65
Method: FIG. 8. Liposomal echinomycin eliminates human ETP-ALL cells in a xenograft mouse model. (Panel A) Dosing regimen of liposomal echinomycin treatment for ETP-ALL humanized mice for data in panel B. Day 0 indicates day of transplantation with human ETP-ALL-1 cells. Green arrows represent one individual liposomal echinomycin injection (0.35 mg/kg/injection via i.v.). Red arrows indicate blood tests. (Panel B) NSG mice with 1.3 Gys irradiated were given i.v. injection of 1×10^6 human ETP-ALL-1 cells. Human CD45^+ cells in PBMC of recipients were detected by FACS analysis at day 34 after transplantation. The percentage of human CD45^+ in PBMC of recipient mice before treatment (Day 34) and after treatment (Day 42, 48, 56, and 64) of mice (vehicle and liposomal echinomycin treatment) was analyzed by FACS analysis. […] The percentage of human CD45^+ in PBMC of recipients after echinomycin treatment (Day 34, 50, and 65) of mice was analyzed by FACS analysis.
To test whether administration of liposomal echinomycin (Lipo-EM) could eliminate human ETP-ALL cells in vivo, Lipo-EM was administered to xenografted ETP-ALL NSG mice according to the dosing schedule outlined in FIG. 8, panel A. Briefly, 1×10^6 ETP ALL-1 cells were transplanted via i.v. injection into 1.3 Gys irradiated NSG mice. […] The percentage of human ETP ALL-1 cells was monitored after treatment. […]

SUM159 cells = test: MTT cell viability assay, SUM 159; format: cell-based; conditions: Homo sapiens, 48 hrs, read-out: IC50 (number of live cells)
Method: (§1) FIG. 9. Echinomycin reduced the number of live breast cancer cells in vitro. Breast cancer cells with high (SUM 159) or low (MCF7) levels of HIF-1α were treated with various concentrations of echinomycin in vitro. The correlation between echinomycin concentration and relative proportions of surviving cells after co-culturing with echinomycin is shown. SUM 159 cells with high HIF-1α are more sensitive to echinomycin than MCF7, which express less HIF-1α.
(§2) To better understand the importance of high HIF-1α expression in breast cancer cells, the ability of echinomycin to reduce survival of breast cancer cells was tested in two breast cancer cell lines, MCF7 and SUM 159. More specifically, MCF7 and SUM 159 were treated with different concentrations of echinomycin for 48 hrs, followed by MTT assays to measure cell viability thereafter.

MCF7 cells = test: MTT cell viability assay, MCF7; format: cell-based, human; conditions: 48 hrs, compared with SUM159
Method: as §1, §2

[5] = test system: SUM159 breast cancer cells; test: SUM159 breast cancer xenograft efficacy; format: in vivo, NSG mice; conditions: 0.1 mg/kg i.v. once every 3 days, 6 doses
Method: FIG. 11. Therapeutic effect of liposomal echinomycin on breast cancer in vivo. (Panel A) Female NSG mice were xenografted with human SUM159 breast cancer cells and treated with free echinomycin or vehicle (n=10 per group). Mice received 0.1 mg/kg of free echinomycin or vehicle via i.v. injection once every 3 days starting on day 28 for a total of 6 doses. Growth kinetics of SUM159 are shown. (Panel B) Female NSG mice were xenografted with SUM159 breast cancer cells and treated with liposomal echinomycin or vehicle (n=5 per group). The growth kinetics of SUM159 in recipient mice treated with vehicle and liposomal echinomycin are shown. Mice received 0.35 mg/kg of liposomal echinomycin or vehicle by i.v. injection on days 9, 11, 13, 25 and 27. Average tumor volume was recorded throughout the experiment. Error bars represent ±SEM. Individual treatments and dosage are denoted by asterisks. (Panel C) Mice were euthanized, and tumors were dissected and photographed. […] Weight is expressed as average weight ±s.d., P value was calculated by t test.
To test the therapeutic efficacy of free echinomycin (in PBS), Lipo-EM, and vehicle in breast cancer cells in vivo, SUM159 cells were xenografted in the mammary fat pad of NOD-SCID mice. […] In addition, Growth kinetics of the transplanted tumors were measured by volume (FIG. 11, panel B) and by weight (FIG. 11, panel C and panel D). […]

[6] = cited from earlier work

## CS[C@H]1SC[C@H]2C(=O)N(C)[C@@H](C(C)C)C(=O)OC[C@@H](NC(=O)c3cnc4ccccc4n3)C(=O)N[C@@H](C)C(=O)N(C)[C@@H]1C(=O)N(C)[C@@H](C(C)C)C(=O)OC[C@@H](NC(=O)c1cnc3ccccc3n1)C(=O)N[C@@H](C)C(=O)N2C [free echinomycin, Echinomycin]
[1]
  survival (in words): died within a week
[2]
  LD50: 0.629 mg/kg
[3]
  time point at which plasma concentration >1 ng/ml is achieved (only): 15 min
[4]
  time point at which tumor concentration >5 ng/g is achieved (only): 2 h
Human ETP-ALL-1 cells
  growth of ETP-ALL-1 cells in recipients (comparison study): did inhibit the growth rate of ETP-ALL-1 cells
SUM159 cells
  IC50: 1 nM
MCF7 cells
  sensitivity to echinomycin: less sensitive
[5]
  tumor size vs vehicle control: no significant differences in tumor size
[6]
  solubility in ethanol, alkalis, ketones, acetic acid and chloroform: soluble
[6]; water
  solubility in water: insoluble
